The test system of series [1] is Fibroblast control cultures. Conditions: by day 7. Here is the method: The inhibitors were added on day 0 to the Opticells® on the day of first feeding (day 5 or 6). Thereafter, cultures were fed with regular media. Samples from the respective treatments and controls were collected on day 21 and analyzed.
Fibroblast control cultures containing 0, 10, 30 and 100 nM of α-amanitin were cultured for one week.

Another series deals with Neuroscreen® cells. The series is described as follows: Neuroscreen cell neurite outgrowth assay. It is filed as cell-based, rat. Particulars: standard NGF response curve. Here is the method: The Neuroscreen® cells responded by extending neurites.
Neuroscreen® cells were maintained prior to the interaction assay by routine culture on collagen coated plastic and subcultured at confluence using basal medium consisting of RPMI (Cat #10-040-CV, Mediatech), 4.0 mM Glutamine (CAT #25-005-CI, Mediatech) supplemented with 20% Horse Serum (Cat #35-030-CV, Mediatech), 10% Fetal Bovine Serum (Cat #35-010, Mediatech).
[…] Neuroscreen® cells were assayed for the formation of neurite process extension using immuno-staining for β-tubulin as follows. Cells were fixed after 4 days in culture by adding 10% v/v of 37% formaldehyde (Cat. #2106-01, J. T. Baker) directly to the culture medium in the well. […]
Only wells with cell counts above 100 cells per field were analyzed. […]
Human peripheral blood collected into ten 8 ml Vacutainer™ tubes containing K2EDTA was shipped overnight on ice and then placed vertically into a +4° C. fridge for 6 hours in order to allow the blood to gravity separate. […] After thoroughly mixing the contents of each conical tube, 10 ml quantities of the solutions were injected into separate sets of 5 Opticells™, and then placed horizontally into a 37° C., […], 2% O2, non-humidified incubator. […]

Read-outs that look alike come from different tables or passages of the source.

On to `CC[C@H](C)[C@@H]1NC(=O)CNC(=O)[C@@H]2Cc3c([nH]c4cc(O)ccc34)[S+]([O-])C[C@@H](NC(=O)CNC1=O)C(=O)N[C@@H](CC(N)=O)C(=O)N1C[C@H](O)C[C@H]1C(=O)N[C@@H]([C@@H](C)[C@@H](O)CO)C(=O)N2` (stereo in doubt) [α-amanitin], for which the Mortality in series [1] (10 nM) is on record as 60-70%; in series [1] (30 nM), 80-90%; in series [1] (100 nM), approximately 100%.

As to “NGF: nerve growth factor, positive control at 100 ng/ml”, the “Effect of fresh NGF at amounts less than 10 ng per well” value in the series on Neuroscreen® cells is on record as “limited or no effect”. Also, the “NGF amount at which maximal responses occur” value with Neuroscreen® cells (fresh NGF) is listed as 100 ng of NGF per well.

Values taken from patent US9314420B2, “Acellular bioabsorbable tissue regeneration matrices” (priority 2005, dated 2016).
